What was measured:
Format in all cases: cell-based
δ-opioid receptor (DOR) [1] = target: T1, δ-opioid receptor (DOR) (Homo sapiens, UniProt P41143); experiment: β-arrestin recruitment (DiscoveRx Pathunter)
From the text: (§1) δ-opioid receptors (DOR) are coupled to inhibitory G proteins (Gi/o) which inhibit adenylyl cyclase activity, open K^+ channels and block Ca^2+ channels. They can also couple, in an agonist-dependent manner to β-arrestin 2, which lead to desensitization, and to MAP kinase (ERK) phosphorylation.
(§2) In Vitro Assessment of δ-Opioid Agonist Potency: […]
(§3) cAMP measurements will be made in δ-opioid-expressing CHO cells exposed to increasing agonist concentrations using DiscoveRx cAMP Hunter™ assay kits. β-arrestin recruitment will be measured in the presence of increasing agonist concentrations using DiscoveRx Pathunter® kits. Selectivity of mu- and kappa-opioid receptors will be performed using Cerep cAMP evaluation from ref. 1392 and 2071 (Cerep Le Bois l'Evéque, 86600 Celle l'Evescault, France).

mu-opioid receptor = mu-opioid receptor (Homo sapiens, UniProt P35372); experiment: Selectivity versus mu-opioid receptor, Cerep cAMP evaluation; details: ratio mu/delta
From the text: as §3

δ-opioid receptor (DOR) [2] = target: T1, δ-opioid receptor (DOR); experiment: cAMP measurement in δ-opioid-expressing CHO cells (DiscoveRx cAMP Hunter)
From the text: as §1, §2, §3

kappa-opioid receptor = kappa-opioid receptor (Rattus norvegicus, UniProt P34975); experiment: Selectivity versus kappa-opioid receptor, Cerep cAMP evaluation; details: ratio kappa/delta
From the text: as §3

[3] = β-arrestin recruitment, agonist potency, read-out: EC-50 beta-arrestin
[4] = δ-opioid-expressing CHO cells, agonist potency, read-out: EC-50 cAMP

T1 sequence (P41143 whole entry): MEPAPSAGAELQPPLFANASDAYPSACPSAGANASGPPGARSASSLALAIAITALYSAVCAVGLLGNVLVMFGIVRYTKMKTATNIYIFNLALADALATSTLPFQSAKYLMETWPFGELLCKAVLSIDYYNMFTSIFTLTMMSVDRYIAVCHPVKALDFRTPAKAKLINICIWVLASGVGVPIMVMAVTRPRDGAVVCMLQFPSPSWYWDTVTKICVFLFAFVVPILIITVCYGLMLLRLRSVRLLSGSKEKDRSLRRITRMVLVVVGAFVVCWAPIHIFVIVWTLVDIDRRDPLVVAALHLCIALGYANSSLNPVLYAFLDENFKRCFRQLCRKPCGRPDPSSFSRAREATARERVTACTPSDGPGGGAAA
Sequence of mu-opioid receptor (P35372 whole entry): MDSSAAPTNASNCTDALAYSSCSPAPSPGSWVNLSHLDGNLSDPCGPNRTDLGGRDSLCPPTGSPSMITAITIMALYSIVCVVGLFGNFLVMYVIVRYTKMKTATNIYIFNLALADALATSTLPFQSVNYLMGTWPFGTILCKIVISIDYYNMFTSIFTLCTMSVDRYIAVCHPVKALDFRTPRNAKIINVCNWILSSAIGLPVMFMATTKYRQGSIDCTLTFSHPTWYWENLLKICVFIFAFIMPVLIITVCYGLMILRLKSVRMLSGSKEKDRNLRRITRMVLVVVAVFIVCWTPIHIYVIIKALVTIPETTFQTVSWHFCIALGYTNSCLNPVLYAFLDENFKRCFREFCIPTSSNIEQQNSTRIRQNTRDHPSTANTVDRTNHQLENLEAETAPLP
Sequence of kappa-opioid receptor (P34975 whole entry): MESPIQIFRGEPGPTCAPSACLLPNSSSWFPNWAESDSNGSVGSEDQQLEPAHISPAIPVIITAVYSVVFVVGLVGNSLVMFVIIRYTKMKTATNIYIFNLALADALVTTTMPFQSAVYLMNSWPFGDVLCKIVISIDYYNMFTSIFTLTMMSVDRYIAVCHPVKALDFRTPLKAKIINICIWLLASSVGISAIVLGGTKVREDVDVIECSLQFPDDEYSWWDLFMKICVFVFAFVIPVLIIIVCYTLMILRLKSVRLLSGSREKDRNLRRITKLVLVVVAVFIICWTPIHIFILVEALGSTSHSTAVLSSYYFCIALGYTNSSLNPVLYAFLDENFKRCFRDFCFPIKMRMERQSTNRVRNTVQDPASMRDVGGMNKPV

SMILES	EC50 (δ-opioid receptor (DOR) [1]; [3]) [nM]	Selectivity (mu/delta) (mu-opioid receptor)	EC50 (δ-opioid receptor (DOR) [2]; [4]) [nM]	Selectivity (kappa/delta) (kappa-opioid receptor)	EC50 (δ-opioid receptor (DOR) [1]) [nM]	EC50 (δ-opioid receptor (DOR) [2]) [nM]
CN(C)C(=O)c1ccc(C(=C2CCN(Cc3ccc(C(F)(F)F)nc3)CC2)c2cccc(C(N)=O)c2)cc1 [Example 1a, 4-[(3-Carbamoylphenyl)(1-{[6-(trifluoromethyl)pyridin-3-yl]methyl}piperidin-4-ylidene)methyl]-N,N-dimethylbenzamide]	28	360	2.8	360		
Cc1nc[nH]c1CN1CCC(=C(c2ccc(C(=O)N(C)C)cc2)c2cccc(C(N)=O)c2)CC1 [Example 1c, 4-[(3-Carbamoylphenyl)({1-[(4-methyl-1H-imidazol-5-yl)methyl]piperidin-4-ylidene})methyl]-N,N-dimethylbenzamide]	3	1000	0.5	1000		
CN(C)C(=O)c1ccc(C(=C2CCN(Cc3cncs3)CC2)c2cccc(C(N)=O)c2)cc1 [Example 1b, 4-[(3-Carbamoylphenyl)[1-(1,3-thiazol-5-ylmethyl)piperidin-4-ylidene]methyl]-N,N-dimethylbenzamide]		100000		1000	4	0.5

Reference: patent US10118921B2, “Diarylmethylidene piperidine derivatives and their use as delta opoid receptor agnists” (PHARMNOVO AB, priority 2014, dated 2018)
